In PubChem BioAssay (NCI):
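Each compound was tested at five concentrations against cells in 96-well plates for 48 hours. The concentration for 50% growth inhibition is given as GI50. TGI is the concentration that stops growth completely.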

Experiments:
Assay in all cases: NCI-60 cell line screen, 48 h
A549 NSCLC = test system: A549 NSCLC
BT-549 breast = test system: BT-549 breast
CCRF-CEM leukemia = test system: CCRF-CEM leukemia
COLO 205 colon = test system: COLO 205 colon
HCT-116 colon = test system: HCT-116 colon
MDA-MB-435 = test system: MDA-MB-435
OVCAR-3 ovarian = test system: OVCAR-3 ovarian
SF-295 CNS = test system: SF-295 CNS
SK-MEL-28 melanoma = test system: SK-MEL-28 melanoma
SNB-75 CNS = test system: SNB-75 CNS
U251 CNS = test system: U251 CNS

| SMILES | TGI (A549 NSCLC) [µM] | TGI (BT-549 breast) [µM] | TGI (CCRF-CEM leukemia) [µM] | TGI (COLO 205 colon) [µM] | TGI (HCT-116 colon) [µM] | TGI (MDA-MB-435) [µM] | TGI (OVCAR-3 ovarian) [µM] | TGI (SF-295 CNS) [µM] | TGI (SK-MEL-28 melanoma) [µM] | TGI (SNB-75 CNS) [µM] | TGI (U251 CNS) [µM] | GI50 (BT-549 breast) [µM] | GI50 (MDA-MB-435) [µM] |
| --- | --- | --- | --- | --- | --- | --- | --- | --- | --- | --- | --- | --- | --- |
| CCOC(=O)c1ccc(C(=O)C(C(C)=O)C(=O)OC(C)(C)C)n1C (stereo not given) | > 100 | > 100 | > 100 | > 100 | > 100 | > 100 | > 100 | > 100 | > 100 | > 100 | > 100 |  |  |
| CC(=O)O[C@H]1C#C/C=C\C#CC[C@@H]2C(=O)N(C(=O)OC(C)(C)C)[C@@H]12 | > 100 | > 81.4 | 6.77 | > 100 | > 89.4 | > 100 | 98.3 | > 100 | > 100 | > 72.9 | > 78.9 |  |  |
| Cc1nnc2cc(C(=O)O)c3ccccc3n2c1=O | > 10 | > 10 | > 10 | > 10 | > 10 | > 10 | > 10 | > 10 | > 10 | > 10 | > 10 |  |  |
| Cc1ccc(S(=O)(=O)n2cncc2CO)cc1 | > 100 | > 100 | > 100 | > 100 | > 100 | > 100 | > 100 | > 100 | > 100 | > 100 | > 100 |  |  |
| CC(CCC(=O)O)[C@H]1CCC2[C@H]3C(CC[C@@]21C)[C@@]1(C)CCC(O)C[C@H]1C[C@@H]3O (stereo not given in full) | > 100 | > 100 | > 100 | > 100 | > 100 | > 100 |  |  | > 100 | > 100 | > 100 |  |  |
| Cc1cc(S(=O)(=O)Nc2nnc3c(C(F)(F)F)cc(Cl)cn23)c(S)cc1Cl | > 100 | > 100 | > 100 | > 100 | > 100 | > 100 | > 100 |  | > 100 | > 100 | > 100 |  |  |
| CCOC(=O)c1cc2c(OC(C)=O)ccc(OC(C)=O)c2s1 | 28.6 | 4.97 | 5.29 | 4.81 | 9 | 7.38 | 3.15 | 18.3 | 5.45 | 5.62 | 10.4 |  |  |
| O=C(Nn1c(-c2ccccc2)nc2ccccc2c1=O)c1ccccn1 | > 100 | > 100 | > 100 | > 100 | > 100 | > 100 | > 100 | > 100 | > 100 | > 100 | > 100 |  |  |
| Cc1cc(Cc2c(F)c(F)c(Cc3cc(C)no3)c(F)c2F)on1 | 25.8 | > 100 | > 100 | > 100 | > 100 | > 100 | > 100 | > 100 | > 100 | 76.7 | > 100 |  |  |
| OCC1OC(n2cnc3cccnc32)CC1O (stereo not given) | > 100 | > 100 | > 100 | > 100 | > 100 | > 100 | > 100 | > 100 | > 100 | > 100 | > 100 |  |  |
| C/C(=N\NC(N)=O)C(CN1CCCCC1)C(c1ccccc1)c1c(O)c2ccccc2oc1=O (stereo not given) | > 100 | > 100 | > 100 | > 100 | > 100 | > 100 | > 100 | > 100 | > 100 | > 100 | > 100 | 86.7 | > 100 |
| O=C(O)/C=C(/CC(=O)O)C(=O)O | 43.2 | 43.7 | 37.2 | 38.6 | 35.6 | 42.6 | 34.5 | 37.8 | 43.7 | 33.1 | 41.2 |  |  |
| CCC1(CC)C(=O)CC[C@@]2(C)C1=CC[C@H]1[C@@H]3CC[C@H](O)[C@@]3(C)CC[C@@H]12 | 28.9 | > 100 | 45.7 | 88.9 | 63.8 | > 100 | 45 | 62.1 | > 100 | > 100 | 33.9 |  |  |
| COP(=O)(OC)C(N)CCSC (stereo not given) | > 100 | > 100 | > 100 | > 100 | > 100 | > 100 | > 100 | > 100 | > 100 | > 100 | > 100 |  |  |
| C/C(O)=C(\C=N\C(N)=S)C(=O)Nc1ccccc1C | > 100 | > 100 | > 100 | > 100 | > 100 | > 100 | > 100 | > 100 | > 100 | > 100 | > 100 |  |  |
| CCCCC[C@@H]1OCO[C@@]2(C)/C=C(C)/C=C/C(=O)O[C@H]([C@@H](C)[C@@H](O)[C@H](C)[C@@]3(O)C[C@@H](O[C@H]4C[C@@H](O)[C@H](O)[C@@H](C)O4)[C@H](C)[C@@H](C)O3)[C@@H](OC)/C=C/C=C(\C)C[C@@H]1[C@@H]2O (stereo in doubt) | 0.733 | 16.5 | 0.455 | 0.666 | 0.609 | 0.541 | 2.46 | 0.0563 | 1.68 | 2.64 | 5.36 |  |  |
